{"source": "patent US10258038B2", "about": "“Use of heterocyclic compounds for controlling nematodes” (BAYER CROPSCIENCE AKTIENGESELLSCHAFT, priority 2014, dated 2019)", "key": {"[1]": {"tested_on": "Pratylenchus zeae", "assay": "Pratylenchus zeae test (PRATZE soil application)", "type": "in vivo", "details": "application rate 2 ppm in soil; corn (Zea mays); after 2 weeks", "protocol": "Pratylenchus zeae—Test (PRATZE Soil Application)\n(§1) Solvent: 4 parts by weight acetone\n(§2) Emulsifier: 1 part by weight alkylaryl polyglycol ether\n(§3) To produce a suitable preparation of active compound, 1 part by weight of active compound is mixed with solvent and emulsifier at the ratio 4:1 and is diluted with water to the desired concentration.\nThis compound solution is mixed with 500 ml soil infected with Pratylenchus zeae (800 nematodes per 100 ml). The stated concentration refers to the amount of compound per unit of volume soil (mg/1=ppm). The treated soil is filled into 500 ml pots and 3 corn seeds (Zea mays) are sown.\n(§4) After 2 weeks the number of nematodes in the corn roots is determined by means of maceration. The roots are cleaned with water, cut into about 1 cm pieces and minced with water in a mixer for 10-15 seconds. The pieces are poured over a 0.2 mm-nematode sieve, rinsed with 400 ml water and the flow rate is collected. After 6 hours the supernatant is aspirated and the number of nematodes is determined microscopically with a counting chamber.\n(§5) The average number of nematodes per pot is determined and efficieny is calculated by using Abbott's formula:\n(§6) C=untreated control plants"}, "[2]": {"tested_on": "Globodera rostochiensis", "assay": "Globodera rostochiensis test (soil application)", "type": "in vivo", "details": "application rate 2 ppm in soil; potato seedling; after six weeks", "protocol": "Globodera rostochiensis—Test (Soil Application)\nas §1, §2\nas §3, with “concentration. This compound composition is mixed with soil. The stated concentration refers to the amount of compound per unit of volume soil (mg/1=ppm).” for “concentration.”\n450 ml of this compound composition is mixed with 50 ml of soil infected with Globodera rostochiensis (20.000 nematodes/100 ml), filled in 500 ml pots and a potato seedling is planted.\nAfter six weeks the average number of cysts in the potato roots per pot are determined and efficieny is calculated by using Abbott's formula:\nas §6"}, "[3]": {"assay": "physchem", "type": "physicochemical", "details": "reversed-phase C18, acidic range pH 3.4 (formic acid), 55° C.; for chromatographic logP: read-out: log P", "protocol": "1) Description of Method for Determination of the log P Values (Formic Acid Method)\nEluents for determination in the acidic range (pH 3.4):\nEluent A: acetonitrile+1 ml of formic acid/liter. Eluent B: water+0.9 ml of formic acid/liter.\nThe lambda max values were determined in the maxima of the chromatographic signals using the UV spectra from 200 nm to 400 nm."}, "[4]": {"tested_on": "Pratylenchus penetrans", "assay": "Pratylenchus penetrans test (soil application)", "type": "in vivo", "details": "corn (Zea mays), after 2 weeks", "protocol": "Pratylenchus penetrans—Test (Soil Application)\nas §1, §2, §3\nThis compound solution is mixed with 500 ml soil infected with Pratylenchus penetrans (800 nematodes per 100 ml). The stated concentration refers to the amount of compound per unit of volume soil (mg/1=ppm). The treated soil is filled into 500 ml pots and 3 corn seeds (Zea mays) are sown.\nas §4, §5, §6"}, "[5]": {"tested_on": "Radopholus similis", "assay": "Radopholus similis test (soil application)", "type": "in vivo", "details": "application rate 2 ppm in soil; banana seedling; after 2 weeks", "protocol": "Radopholus similis—Test (Soil Application)\nas §1, §2, §3\nThis compound solution is mixed with soil. The stated concentration refers to the amount of compound per unit of volume soil (mg/1=ppm). The treated soil is filled into 250 ml pots and a banana seedling is planted. Afterwards 2.5 ml of a nematode suspension (500 Radopholus similis/ml) are applied.\nAfter 2 weeks the number of nematodes in the banana roots is determined by means of maceration. The roots are cut off, cleaned with water and after adding 25-40 ml 0.01% lactic acid—acid fuchsin solution they are boiled in a microwave. On the next day the roots are rinsed over a 0.025 mm-nematode sieve, roughly minced and macerated with 15-20 ml water in an Ultra Turrax. After filling up with water to 45 ml, the number of nematodes in the supernatant is determined microscopically with a counting chamber.\nas §5, §6"}, "[6]": {"tested_on": "Meloidogyne incognita", "assay": "Meloidogyne incognita in tomato test (MELGIN soil application)", "type": "in vivo", "details": "application rate 2 ppm in soil; tomato seedling (Solanum lycopersicum); after five weeks", "protocol": "Meloidogyne incognita in Tomato—Test (MELGIN Soil Application)\nas §1, §2\nTo produce a suitable preparation of active compound, 1 part by weight of active compound is mixed with solvent and emulsifier at the ratio 4:1 and is diluted with water to the desired concentration. The stated concentration refers to the amount of compound per unit of volume soil (mg/1=ppm).\nThis compound composition is mixed with 500 ml of soil and 4 ml of a nematode suspension (1000 differenciated eggs and larvae of Meloidogyne incognita/ml). The stated concentration refers to the amount of compound per unit of volume soil (mg/1=ppm). The treated soil is filled in 500 ml pots and a tomato seedling (Solanum lycopersicum) is planted.\nAfter five weeks the average number of galls in the tomato roots per pot are determined and efficieny is calculated by using Abbott's formula:\nas §6"}}, "note": "Where two headings read alike, the source gives them in different places.", "data": [{"smiles": "O=C(Nc1ccn(-c2c(F)cccc2F)n1)c1ccccc1C(F)(F)F", "note": "[Compound I-1-75, N-[1-(2,6-difluorophenyl)-1H-pyrazol-3-yl]-2-(trifluoromethyl)benzamide]", "values": [{"measurement": "activity (efficiency by Abbott's formula, number of nematodes in corn roots)", "setting": "[1]", "result": 89, "unit": "%"}, {"measurement": "activity (efficiency by Abbott's formula, number of cysts in potato roots)", "setting": "[2]", "result": 100, "unit": "%"}, {"measurement": "chromatographic logP", "setting": "[3]; HPLC", "result": 2.68}, {"measurement": "activity (efficiency by Abbott's formula, number of nematodes in corn roots)", "setting": "[4]; application rate 2 ppm in soil", "result": 88, "unit": "%"}, {"measurement": "activity (efficiency by Abbott's formula, number of nematodes in banana roots)", "setting": "[5]", "result": 90, "unit": "%"}, {"measurement": "activity (efficiency by Abbott's formula, number of galls in tomato roots)", "setting": "[6]", "result": 100, "unit": "%"}]}, {"smiles": "CCN(C(=O)c1ccccc1C(F)(F)F)c1ccn(-c2ncc(F)cc2F)n1", "note": "[Compound I-1-468, N-[1-(3,5-difluoropyridin-2-yl)-1H-pyrazol-3-yl]-N-ethyl-2-(trifluoromethyl)benzamide]", "values": [{"measurement": "activity (efficiency by Abbott's formula, number of cysts in potato roots)", "setting": "[2]", "result": 100, "unit": "%"}, {"measurement": "chromatographic logP", "setting": "[3]; reversed-phase C18 HPLC column", "result": 3.23}]}, {"smiles": "N#Cc1nccnc1-n1ccc(NC(=O)c2ccccc2C(F)(F)F)n1", "note": "[Compound I-1-574, N-[1-(3-Cyanopyrazin-2-yl)-1H-pyrazol-3-yl]-2-(trifluoromethyl)benzamide]", "values": [{"measurement": "activity (efficiency by Abbott's formula, number of cysts in potato roots)", "setting": "[2]", "result": 80, "unit": "%"}, {"measurement": "activity (efficiency by Abbott's formula, number of nematodes in corn roots)", "setting": "[4]; application rate 4 ppm in soil", "result": 97, "unit": "%"}]}, {"smiles": "O=C(Nc1cnn(-c2c(F)cccc2F)n1)c1ccccc1C(F)(F)F", "note": "[Compound I-2-35, N-[2-(2,6-Difluorophenyl)-2H-1,2,3-triazol-4-yl]-2-(trifluoromethyl)benzamide]", "values": [{"measurement": "activity (efficiency by Abbott's formula, number of cysts in potato roots)", "setting": "[2]", "result": 100, "unit": "%"}, {"measurement": "log P", "setting": "[3]; HPLC", "result": 2.80}, {"measurement": "activity (efficiency by Abbott's formula, number of nematodes in corn roots)", "setting": "[4]; application rate 2 ppm in soil", "result": 90, "unit": "%"}, {"measurement": "activity (efficiency by Abbott's formula, number of galls in tomato roots)", "setting": "[6]", "result": 100, "unit": "%"}]}, {"smiles": "CC(=O)NC1=NN(c2c(F)cccc2F)CC1", "note": "[Ia-2, N-[1-(2,6-Difluorophenyl)-4,5-dihydro-1H-pyrazol-3-yl]acetamide]", "values": [{"measurement": "log P", "setting": "[3]; HPLC", "result": 1.46}]}, {"smiles": "CC(=O)Nc1ccn(-c2c(F)cccc2F)n1", "note": "[Ia-3, N-[1-(2,6-Difluorophenyl)-1H-pyrazol-3-yl]acetamide]", "values": [{"measurement": "log P", "setting": "[3]; HPLC", "result": 1.33}]}, {"smiles": "Nc1ccn(-c2c(F)cccc2F)n1", "note": "[Ia-4, 1-(2,6-Difluorophenyl)-1H-pyrazole-3-amine]", "values": [{"measurement": "log P", "setting": "[3]; HPLC", "result": 1.13}]}, {"smiles": "Nc1ccn(-c2ncc(F)cc2F)n1", "note": "[Ib-1, 1-(3,5-Difluoropyridin-2-yl)-1H-pyrazole-3-amine]", "values": [{"measurement": "log P", "setting": "[3]; HPLC", "result": 0.81}]}, {"smiles": "Nc1cnn(-c2c(F)cccc2F)n1", "note": "[Ic-8, 2-(2,6-Difluorophenyl)-2H-1,2,3-triazole-4-amine]", "values": [{"measurement": "log P", "setting": "[3]; HPLC", "result": 1.16}]}]}
